Test system: HCT-116 Firefly-luciferase reporter cells
Test: Cellular c-MYC Reporter Assay
Assay type: cell-based
Settings: Homo sapiens; untitled table following Table 8a; HCT-116 Firefly-luciferase reporter cells, 24 h; read-out: pIC50 (converted)
Outline: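 Compound exposure lasted 24 h at 37 °C, 5% CO2, in complete McCoy's 5A medium containing 0.2% DMSO, beginning 4–6 h post-seeding (5e4 cells/mL). Firefly luciferase signal measured by luminescence after 10 min ONE-Glo development at room temperature.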

| Structure (SMILES) | IC50 [nM] |
| --- | --- |
| O=C(c1ccc(-n2nnc3cccnc32)cc1F)N(c1nccc2ccc(CCCO)cc12)[C@@H]1CCCNC1 [Example 134, (R)-4-(3H-[1,2,3]triazolo[4,5-b]pyridin-3-yl)-2-fluoro-N-(7-(3 hydroxypropyl)isoquinolin-1-yl)-N-(piperidin-3-yl)benzamide] | 575 |
| O=C(c1ccc(-n2nnc3cccnc32)cc1F)N(c1nccc2ccc(/C=C/CO)cc12)[C@@H]1CCCNC1 [Example 135, (R)-4-(3H-[1,2,3]triazolo[4,5-b]pyridin-3-yl)-2-fluoro-N-(7-(3-hydroxyprop-1-en-1-yl)isoquinolin-1-yl)-N-(piperidin-3-yl)benzamide] | 575 |
| O=C(c1ccc(-n2nnc3cccnc32)cc1F)N(c1ncccc1-c1cc[nH]n1)[C@@H]1CCCNC1 [Example 136, (R)—N-(3-(1H-pyrazol-3-yl)pyridin-2-yl)-4-(3H-[1,2,3]triazolo[4,5-b]pyridin-3-yl)-2-fluoro-N-(piperidin-3-yl)benzamide] | 1100 |
| Cc1ccnc(N(C(=O)c2ccc(-n3nnc4cccnc43)cc2F)[C@@H]2CCCNC2)c1/C=C/CCO [Example 137, (R,E)-4-(3H-[1,2,3]triazolo[4,5-b]pyridin-3-yl)-2-fluoro-N-(3-(4-hydroxybut-1-en-1-yl)-4-methylpyridin-2-yl)-N-(piperidin-3-yl)benzamide] | 2950 |
| Cc1cccc2ccnc(N(C(=O)c3ccc(-n4nnc5ccc(-c6cc[nH]n6)nc54)cc3F)[C@@H]3CCCNC3)c12 [Example 138, (R)-4-(5-(1H-pyrazol-3-yl)-3H-[1,2,3]triazolo[4,5-b]pyridin-3-yl)-2-fluoro-N-(8-methylisoquinolin-1-yl)-N-(piperidin-3-yl)benzamide] | 44.7 |
| CNC(=O)c1ccc2nnn(-c3ccc(C(=O)N(c4nccc5cccc(C)c45)[C@@H]4CCCNC4)c(F)c3)c2n1 [Example 139, (R)-3-(3-fluoro-4-((8-methylisoquinolin-1-yl)(piperidin-3-yl)carbamoyl)phenyl)-N-methyl-3H-[1,2,3]triazolo[4,5-b]pyridine-5-carboxamide] | 170 |
| COC(=O)c1ccc2nnn(-c3ccc(C(=O)N(c4nccc5cccc(C)c45)[C@@H]4CCCNC4)c(F)c3)c2n1 [Example 140, methyl (R)-3-(3-fluoro-4-((8-methylisoquinolin-1-yl)(piperidin-3-yl)carbamoyl)phenyl)-3H-[1,2,3]triazolo[4,5-b]pyridine-5-carboxylate] | 240 |
| O=C(c1ccc(I)cc1F)N(c1nccc2cccc(Cl)c12)[C@@H]1CCCNC1 [Example 141, (R)—N-(8-chloroisoquinolin-1-yl)-2-fluoro-4-iodo-N-(piperidin-3-yl)benzamide] | 1910 |
| CCc1nnn(-c2ccc(C(=O)N(c3nccc4cccc(C)c34)[C@@H]3CCCNC3)c(F)c2)n1 [Example 142, (R)-4-(5-ethyl-2H-tetrazol-2-yl)-2-fluoro-N-(8-methylisoquinolin-1-yl)-N-(piperidin-3-yl)benzamide] | 79.4 |
| O=C(c1ccc(-n2nnc3cccnc32)cc1F)N(c1nccc2cc(Br)ccc12)[C@@H]1CCCNC1 [Example 143, (R)-4-(3H-[1,2,3]triazolo[4,5-b]pyridin-3-yl)-N-(6-bromoisoquinolin-1-yl)-2-fluoro-N-(piperidin-3-yl)benzamide] | 724 |
| O=C(c1ccc(-n2nnc3cccnc32)cc1F)N(c1nccc2cc(F)ccc12)[C@@H]1CCCNC1 [Example 144, (R)-4-(3H-[1,2,3]triazolo[4,5-b]pyridin-3-yl)-2-fluoro-N-(6-fluoroisoquinolin-1-yl)-N-(piperidin-3-yl)benzamide] | 603 |
| COc1ccc2c(N(C(=O)c3ccc(-n4nnc5cccnc54)cc3F)[C@@H]3CCCNC3)nccc2c1 [Example 145, (R)-4-(3H-[1,2,3]triazolo[4,5-b]pyridin-3-yl)-2-fluoro-N-(6-methoxyisoquinolin-1-yl)-N-(piperidin-3-yl)benzamide] | 525 |
| O=C(c1ccc(-n2nnc3cccnc32)cc1F)N(c1nccc2cc(CO)ccc12)[C@@H]1CCCNC1 [Example 146, (R)-4-(3H-[1,2,3]triazolo[4,5-b]pyridin-3-yl)-2-fluoro-N-(6-(hydroxymethyl)isoquinolin-1-yl)-N-(piperidin-3-yl)benzamide] | 562 |
| N#Cc1ccc2c(N(C(=O)c3ccc(-n4nnc5cccnc54)cc3F)[C@@H]3CCCNC3)nccc2c1 [Example 147, (R)-4-(3H-[1,2,3]triazolo[4,5-b]pyridin-3-yl)-2-fluoro-N-(6-cyanoisoquinolin-1-yl)-N-(piperidin-3-yl)benzamide] | 1380 |
| NC(=O)CCc1ccc2ccnc(N(C(=O)c3ccc(-n4nnc5cccnc54)cc3F)[C@@H]3CCCNC3)c2c1 [Example 148, (R)-4-(3H-[1,2,3]triazolo[4,5-b]pyridin-3-yl)-N-(7-(3-amino-3-oxopropyl)isoquinolin-1-yl)-2-fluoro-N-(piperidin-3-yl)benzamide] | 13800 |
| NC(=O)/C=C/c1ccc2ccnc(N(C(=O)c3ccc(-n4nnc5cccnc54)cc3F)[C@@H]3CCCNC3)c2c1 [Example 149, (R,E)-4-(3H-[1,2,3]triazolo[4,5-b]pyridin-3-yl)-N-(7-(3-amino-3-oxoprop-1-en-1-yl)isoquinolin-1-yl)-2-fluoro-N-(piperidin-3-yl)benzamide] | 3800 |
| O=C(c1ccc(-n2nnc3cccnc32)cc1F)N(c1nccc2ccc(-c3cncnc3)cc12)[C@@H]1CCCNC1 [Example 150, (R)-4-(3H-[1,2,3]triazolo[4,5-b]pyridin-3-yl)-2-fluoro-N-(piperidin-3-yl)-N-(7-(pyrimidin-5-yl)isoquinolin-1-yl)benzamide] | 2290 |
| O=C(c1ccc(-n2nnc3cccnc32)cc1F)N(c1nccc2ccc(-c3cccnc3)cc12)[C@@H]1CCCNC1 [Example 151, (R)-4-(3H-[1,2,3]triazolo[4,5-b]pyridin-3-yl)-2-fluoro-N-(piperidin-3-yl)-N-(7-(pyridin-3-yl)isoquinolin-1-yl)benzamide] | 1020 |
| O=C(c1ccc(-n2nnc3cccnc32)cc1F)N(c1nccc2ccc(-c3ccn[nH]3)cc12)[C@@H]1CCCNC1 [Example 152, (R)—N-(7-(1H-pyrazol-5-yl)isoquinolin-1-yl)-4-(3H-[1,2,3]triazolo[4,5-b]pyridin-3-yl)-2-fluoro-N-(piperidin-3-yl)benzamide] | 468 |
| CNC(=O)OCc1ccc2ccnc(N(C(=O)c3ccc(-n4nnc5cccnc54)cc3F)[C@@H]3CCCNC3)c2c1 [Example 153, (R)-(1-(4-(3H-[1,2,3]triazolo[4,5-b]pyridin-3-yl)-2-fluoro-N-(piperidin-3-yl)benzamido)isoquinolin-7-yl)methyl methylcarbamate] | 2400 |
| O=C(c1ccc(-n2nnc3cccnc32)cc1F)N(c1nccc2ccc(CO)cc12)[C@@H]1CCCNC1 [Example 154, (R)-4-(3H-[1,2,3]triazolo[4,5-b]pyridin-3-yl)-2-fluoro-N-(7-(hydroxymethyl)isoquinolin-1-yl)-N-(piperidin-3-yl)benzamide] | 1050 |
| NC(=O)c1ccc2ccnc(N(C(=O)c3ccc(-n4nnc5cccnc54)cc3F)[C@@H]3CCCNC3)c2c1 [Example 155, (R)-1-(4-(3H-[1,2,3]triazolo[4,5-b]pyridin-3-yl)-2-fluoro-N-(piperidin-3-yl)benzamido)isoquinoline-7-carboxamide] | 5750 |
| N#Cc1ccc2ccnc(N(C(=O)c3ccc(-n4nnc5cccnc54)cc3F)[C@@H]3CCCNC3)c2c1 [Example 156] | 7080 |
| O=C(c1ccc(-n2nnc3cccnc32)cc1F)N(c1ncccc1-c1cc2cnccc2s1)[C@@H]1CCCNC1 [Example 157, (R)-4-(3H-[1,2,3]triazolo[4,5-b]pyridin-3-yl)-2-fluoro-N-(piperidin-3-yl)-N-(3-(thieno[3,2-c]pyridin-2-yl)pyridin-2-yl)benzamide] | 501 |
| O=C(c1ccc(-n2nnc3cccnc32)cc1F)N(c1nccc2sc(/C=C/CO)cc12)[C@@H]1CCCNC1 [Example 158, (R,E)-4-(3H-[1,2,3]triazolo[4,5-b]pyridin-3-yl)-2-fluoro-N-(2-(3-hydroxyprop-1-en-1-yl)thieno[3,2-c]pyridin-4-yl)-N-(piperidin-3-yl)benzamide] | 692 |
| O=C(c1ccc(-n2nnc3cccnc32)cc1F)N(c1nccc2sc(C3=CCNCC3)cc12)[C@@H]1CCCNC1 [Example 159, (R)-4-(3H-[1,2,3]triazolo[4,5-b]pyridin-3-yl)-2-fluoro-N-(piperidin-3-yl)-N-(2-(1,2,3,6-tetrahydropyridin-4-yl)thieno[3,2-c]pyridin-4-yl)benzamide] | 2630 |
| O=C(c1ccc(-n2nnc3cccnc32)cc1F)N(c1nccc2sc(-c3cn[nH]c3)cc12)[C@@H]1CCCNC1 [Example 160, (R)—N-(2-(1H-pyrazol-4-yl)thieno[3,2-c]pyridin-4-yl)-4-(3H-[1,2,3]triazolo[4,5-b]pyridin-3-yl)-2-fluoro-N-(piperidin-3-yl)benzamide] | 447 |
| O=C(c1ccc(-n2nnc3cccnc32)cc1F)N(c1nccc2sc(-c3ccncc3)cc12)[C@@H]1CCCNC1 [Example 161, (R)-4-(3H-[1,2,3]triazolo[4,5-b]pyridin-3-yl)-2-fluoro-N-(piperidin-3-yl)-N-(2-(pyridin-4-yl)thieno[3,2-c]pyridin-4-yl)benzamide] | 417 |
| O=C(c1ccc(-n2nnc3cccnc32)cc1F)N(c1nccc2sc(Br)cc12)[C@@H]1CCCNC1 [Example 162, (R)-4-(3H-[1,2,3]triazolo[4,5-b]pyridin-3-yl)-N-(2-bromothieno[3,2-c]pyridin-4-yl)-2-fluoro-N-(piperidin-3-yl)benzamide] | 776 |
| O=C(c1ccc(-n2nnc3cccnc32)cc1F)N(c1nccc2cccc(/C=C/c3cccnc3)c12)[C@@H]1CCCNC1 [Example 163, (R,E)-4-(3H-[1,2,3]triazolo[4,5-b]pyridin-3-yl)-2-fluoro-N-(piperidin-3-yl)-N-(8-(2-(pyridin-3-yl)vinyl)isoquinolin-1-yl)benzamide] | 537 |
